Assay results reported in PubChem BioAssay (NCI).
“And” between values parts separate entries of the source, which are not always exact repeats. Equal entries are not always repeated.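 Dose response: 5 concentrations. Exposure: 48 h. Format: 96-well plates. Endpoint: linear interpolation; highest concentration if not reached. TGI: total growth inhibition.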

Tests used:
Experiment in all cases: NCI tumour cell line growth inhibition, 48 h
[1] = tested on: 786-0 renal
[2] = tested on: A549 NSCLC
[3] = tested on: ACHN renal
[4] = tested on: CAKI-1 renal
[5] = tested on: DMS 114 small cell lung
[6] = tested on: HCC-2998 colon
[7] = tested on: HCT-116 colon
[8] = tested on: HCT-15 colon
[9] = tested on: HL-60(TB) leukemia
[10] = tested on: HOP-92 NSCLC
[11] = tested on: IGROV1 ovarian
[12] = tested on: K-562 leukemia
[13] = tested on: KM12 colon
[14] = tested on: KM20L2 colon
[15] = tested on: LOX IMVI melanoma
[16] = tested on: M14 melanoma
[17] = tested on: MALME-3M melanoma
[18] = tested on: MOLT-4 leukemia
[19] = tested on: NCI-H226 lung
[20] = tested on: NCI-H23 lung
[21] = tested on: OVCAR-3 ovarian
[22] = tested on: OVCAR-4 ovarian
[23] = tested on: OVCAR-5 ovarian
[24] = tested on: RXF 393 renal
[25] = tested on: SF-268 CNS
[26] = tested on: SK-MEL-2 melanoma
[27] = tested on: SK-MEL-28 melanoma
[28] = tested on: SK-MEL-5 melanoma
[29] = tested on: SK-OV-3 ovarian
[30] = tested on: SN12C renal
[31] = tested on: SNB-19 CNS
[32] = tested on: SNB-75 CNS
[33] = tested on: SNB-78 CNS
[34] = tested on: SR leukemia
[35] = tested on: SW-620 colon
[36] = tested on: TK-10 renal
[37] = tested on: U251 CNS
[38] = tested on: UACC-62 melanoma
[39] = tested on: UO-31 renal
[40] = tested on: CCRF-CEM leukemia
[41] = tested on: COLO 205 colon
[42] = tested on: DLD-1 colon
[43] = tested on: DMS 273 small cell lung
[44] = tested on: EKVX NSCLC
[45] = tested on: HOP-62 NSCLC
[46] = tested on: HT29 colon
[47] = tested on: LXFL 529 NSCLC
[48] = tested on: M19-MEL melanoma
[49] = tested on: NCI-H460 lung
[50] = tested on: OVCAR-8 ovarian
[51] = tested on: RPMI-8226 leukemia
[52] = tested on: SF-539 CNS
[53] = tested on: UACC-257 melanoma
[54] = tested on: A498 renal
[55] = tested on: BT-549 breast
[56] = tested on: DU-145 prostate
[57] = tested on: HS 578T breast
[58] = tested on: MCF7 breast
[59] = tested on: MDA-MB-231 breast
[60] = tested on: MDA-MB-435
[61] = tested on: MDA-N
[62] = tested on: NCI-H522 lung
[63] = tested on: NCI/ADR-RES ovarian
[64] = tested on: PC-3 prostate
[65] = tested on: SF-295 CNS
[66] = tested on: T-47D breast

Compound: COC1CCCCN1C(=O)c1ccccc1 (configuration not stated)
- TGI [1]: > 25.3 µM
- TGI [2]: > 25.3 µM
- TGI [3]: > 25.3 µM
- TGI [4]: > 25.3 µM
- TGI [5]: > 25.3 µM
- TGI [6]: > 25.3 µM
- TGI [7]: > 25.3 µM
- TGI [8]: > 25.3 µM
- TGI [9]: > 25.3 µM
- TGI [10]: > 25.3 µM
- TGI [11]: > 25.3 µM
- TGI [12]: > 25.3 µM
- TGI [13]: > 25.3 µM
- TGI [14]: > 25.3 µM
- TGI [15]: > 25.3 µM
- TGI [16]: > 25.3 µM
- TGI [17]: > 25.3 µM
- TGI [18]: > 25.3 µM
- TGI [19]: > 25.3 µM
- TGI [20]: > 25.3 µM
- TGI [21]: > 25.3 µM
- TGI [22]: > 25.3 µM
- TGI [23]: > 25.3 µM
- TGI [24]: > 25.3 µM
- TGI [25]: > 25.3 µM
- TGI [26]: > 25.3 µM
- TGI [27]: > 25.3 µM
- TGI [28]: > 25.3 µM
- TGI [29]: > 25.3 µM
- TGI [30]: > 25.3 µM
- TGI [31]: > 25.3 µM
- TGI [32]: > 25.3 µM
- TGI [33]: > 25.3 µM
- TGI [34]: > 25.3 µM
- TGI [35]: > 25.3 µM
- TGI [36]: > 25.3 µM
- TGI [37]: > 25.3 µM
- TGI [38]: > 25.3 µM
- TGI [39]: > 25.3 µM

Compound: Cc1cccc2c1Sc1ccccc1C2NC(=O)CCN(C)C (configuration not stated)
- TGI [2]: > 100 µM
- TGI [3]: > 100 µM
- TGI [40]: > 100 µM
- TGI [41]: > 100 µM
- TGI [42]: > 100 µM
- TGI [5]: > 100 µM
- TGI [43]: > 100 µM
- TGI [44]: > 100 µM
- TGI [6]: > 100 µM
- TGI [7]: > 100 µM
- TGI [8]: > 100 µM
- TGI [9]: > 100 µM
- TGI [45]: > 100 µM
- TGI [46]: > 100 µM
- TGI [11]: > 100 µM
- TGI [12]: > 100 µM
- TGI [14]: > 100 µM
- TGI [15]: > 100 µM
- TGI [47]: > 100 µM
- TGI [16]: > 100 µM
- TGI [48]: > 100 µM
- TGI [18]: > 100 µM
- TGI [19]: > 100 µM
- TGI [20]: > 100 µM
- TGI [49]: > 100 µM
- TGI [22]: > 100 µM
- TGI [23]: > 100 µM
- TGI [50]: > 100 µM
- TGI [51]: > 100 µM
- TGI [24]: > 100 µM
- TGI [25]: > 100 µM
- TGI [52]: > 100 µM
- TGI [27]: > 100 µM
- TGI [28]: > 100 µM
- TGI [29]: > 100 µM
- TGI [30]: > 100 µM
- TGI [31]: > 100 µM
- TGI [32]: > 100 µM
- TGI [33]: > 100 µM
- TGI [34]: > 100 µM
- TGI [35]: > 100 µM
- TGI [36]: > 100 µM
- TGI [37]: > 100 µM
- TGI [53]: > 100 µM
- TGI [38]: > 100 µM
- TGI [39]: > 100 µM

Compound: C=C1C(=O)OC2CC(C)C(C(O)CC(C)O)=CCC12 (configuration not stated)
- TGI [1]: 30.2 µM
- TGI [54]: 32.1 µM
- TGI [2]: > 80.6 µM
- TGI [3]: 8.95 µM
- TGI [55]: 30.2 µM
- TGI [4]: 9.26 µM
- TGI [40]: 14.3 µM
- TGI [41]: 24.6 µM
- TGI [56]: 30.4 µM
- TGI [44]: 28.6 µM
- TGI [6]: 33.2 µM
- TGI [7]: 21.9 µM
- TGI [8]: 41.4 µM
- TGI [9]: 13.5 µM
- TGI [45]: > 74.3 µM
- TGI [10]: 27.8 µM
- TGI [57]: 62 µM
- TGI [46]: 35.7 µM
- TGI [11]: 43.4 µM
- TGI [12]: 37.1 µM
- TGI [13]: 46.4 µM
- TGI [15]: 25.7 µM
- TGI [16]: 35 µM
- TGI [17]: 21.9 µM
- TGI [58]: 28.1 µM
- TGI [59]: 33.8 µM
- TGI [60]: > 59.2 µM
- TGI [61]: 42.3 µM
- TGI [18]: 32.6 µM
- TGI [19]: 72.7 µM
- TGI [20]: 33.3 µM
- TGI [49]: 46.6 µM
- TGI [62]: 3.29 µM
- TGI [63]: 41 µM
- TGI [21]: 25.2 µM
- TGI [22]: 42.2 µM
- TGI [23]: 30.7 µM
- TGI [50]: 43.8 µM
- TGI [64]: 57 µM
- TGI [51]: 34.2 µM
- TGI [24]: 30.5 µM
- TGI [25]: 36.4 µM
- TGI [65]: > 100 µM
- TGI [52]: 31.3 µM
- TGI [26]: 38.5 µM
- TGI [27]: 23.1 µM
- TGI [28]: 41.2 µM
- TGI [29]: > 100 µM
- TGI [30]: 33.1 µM
- TGI [31]: > 100 µM
- TGI [32]: 47.2 µM
- TGI [34]: 29.5 µM
- TGI [35]: 37.6 µM
- TGI [66]: 23.6 µM
- TGI [36]: 23.3 µM
- TGI [37]: 39.4 µM
- TGI [53]: 29.8 µM
- TGI [38]: 44.2 µM
- TGI [39]: 30.7 µM

Compound: O=C1NC(N/N=C\C(O)C(O)C(O)C(O)CO)=N/C1=C/c1ccc(Cl)cc1 (configuration not stated)
- TGI [1]: > 100 µM
- TGI [54]: > 100 µM
- TGI [2]: > 100 µM
- TGI [3]: > 100 µM
- TGI [55]: > 100 µM
- TGI [4]: > 100 µM
- TGI [40]: > 100 µM
- TGI [41]: > 100 µM
- TGI [56]: > 100 µM
- TGI [44]: > 100 µM
- TGI [6]: > 100 µM
- TGI [7]: > 100 µM
- TGI [8]: > 100 µM
- TGI [9]: > 100 µM
- TGI [45]: > 100 µM
- TGI [10]: > 100 µM
- TGI [57]: > 100 µM
- TGI [46]: > 100 µM
- TGI [11]: > 100 µM
- TGI [12]: > 100 µM
- TGI [13]: > 100 µM
- TGI [15]: > 100 µM
- TGI [16]: > 100 µM
- TGI [17]: > 100 µM
- TGI [58]: > 100 µM
- TGI [59]: > 100 µM
- TGI [60]: > 100 µM
- TGI [61]: > 100 µM
- TGI [18]: > 100 µM
- TGI [19]: > 100 µM
- TGI [20]: > 100 µM
- TGI [49]: > 100 µM
- TGI [62]: > 100 µM
- TGI [63]: > 100 µM
- TGI [21]: > 100 µM
- TGI [22]: > 100 µM and 50.7 µM
- TGI [23]: > 100 µM
- TGI [50]: > 100 µM
- TGI [64]: > 100 µM
- TGI [51]: > 100 µM
- TGI [24]: > 100 µM
- TGI [25]: > 100 µM
- TGI [65]: > 100 µM
- TGI [52]: > 100 µM
- TGI [26]: > 100 µM
- TGI [27]: > 100 µM
- TGI [28]: > 100 µM
- TGI [29]: > 100 µM
- TGI [30]: > 100 µM
- TGI [31]: > 100 µM
- TGI [32]: > 100 µM
- TGI [34]: > 100 µM
- TGI [35]: > 100 µM
- TGI [66]: > 100 µM
- TGI [36]: > 100 µM
- TGI [37]: > 100 µM
- TGI [53]: > 100 µM
- TGI [39]: > 100 µM
